Results as given in patent publication US20120058499A1, “Bioluminescent Detection of Protease Activity” (priority 2010, published 2012).

Legend:
Type in all cases: biochemical
[1] = test system: UCHL3, USP2core, USP7, and USP8; assay: Limit of detection for four isopeptidases, Ub-LUC vs Ub-AMC and Ub-Rhodamine110; conditions: the four enzymes
Protocol: The Ub-amino-luciferin substrate was compared to the Z-Arg-Leu-Arg-Gly-Gly (SEQ ID NO: 1)-amino-luciferin substrate (Promega DUB-Glo™ substrate) to determine the limit of detection of the activities of four different isopeptidases (UCHL3, USP2core, USP7, and USP8). For all enzymes, these two substrates were tested in parallel using the DUB-Glo™ assay system (Promega) according to the manufacturer's instructions. All enzymes were diluted into 50 mM HEPES, pH 7.5, 10 mM DTT, 0.1% Prionex (Sigma-Aldrich). […] The signal in relative luminescence units (RLUs) was measured at 30 minutes from reaction assembly on an Envision multi-label plate reader (Perkin Elmer). The signal to background ratio (S/B) was calculated as (maximum signal−signal in absence of enzyme)/(signal in absence of enzyme).
The Ub-amino-luciferin (Ub-LUC) substrate was compared to the Ub-AMC substrate (FIG. 3) and the Ub-Rhodamine110 (Ub-Rho) substrate (FIG. 4), to determine the limit of detection for the activities of four different isopeptidases (UCHL3, USP2core, USP7, and USP8). […] Reactions were assembled through the addition of 50 μl diluted isopeptidase to 50 μl of either Ub-AMC or Ub-Rhodamine110, and the signal in relative fluorescence units (RFUs) was measured at 30 minutes on an Envision multi-label plate reader (Perkin Elmer). […]

USP7 = USP7 (Homo sapiens, UniProt Q93009); assay: Isopeptidase cleavage of substrates (DUB-Glo luminescence / fluorescence), S/B; conditions: USP7 0.5 nM
Protocol: The Ub-amino-luciferin substrate was compared to the Z-Arg-Leu-Arg-Gly-Gly (SEQ ID NO: 1)-amino-luciferin substrate (Promega DUB-Glo™ substrate) to determine the limit of detection of the activities of four different isopeptidases (UCHL3, USP2core, USP7, and USP8). For all enzymes, these two substrates were tested in parallel using the DUB-Glo™ assay system (Promega) according to the manufacturer's instructions. All enzymes were diluted into 50 mM HEPES, pH 7.5, 10 mM DTT, 0.1% Prionex (Sigma-Aldrich). For testing Z-Arg-Leu-Arg-Gly-Gly (SEQ ID NO: 1)-amino-luciferin, final isopeptidase concentrations were as follows: UCHL3 equal to approximately 0.35 to 50 nM; USP2core equal to approximately 10 to 500 nM, USP7 equal to approximately 0.1 to 50 nM, and USP8 equal to approximately 20 to 500 nM. For testing Ub-amino-luciferin, final isopeptidase concentrations were as follows: UCHL3 equal to approximately 0.05 to 50 pM; USP2core, USP7, and USP8 equal to approximately 0.5 to 500 pM. Reactions were assembled through addition of 50 μl of diluted enzyme and 50 μl of DUB-Glo™ reaction mixture supplemented with either Z-Arg-Leu-Arg-Gly-Gly (SEQ ID NO: 1)-amino-luciferin (final concentration of 20 μM) or Ub-amino-luciferin (final concentration of 100 nM). The signal in relative luminescence units (RLUs) was measured at 30 minutes from reaction assembly on an Envision multi-label plate reader (Perkin Elmer). The signal to background ratio (S/B) was calculated as (maximum signal−signal in absence of enzyme)/(signal in absence of enzyme).
The Ub-amino-luciferin (Ub-LUC) substrate was compared to the Ub-AMC substrate (FIG. 3) and the Ub-Rhodamine110 (Ub-Rho) substrate (FIG. 4), to determine the limit of detection for the activities of four different isopeptidases (UCHL3, USP2core, USP7, and USP8). All enzymes were diluted into 50 mM Tris, pH 8.0, 5 mM DTT, 0.05% (w/v) CHAPS. Final isopeptidase concentrations were as follows: UCHL3 equal to approximately 2 pM to 40 pM; USP2core, USP7, and USP8 were equal to approximately 10 to 1000 nM. Either Ub-AMC or Ub-Rhodamine110 (final concentration equal to 250 nM) were diluted into 50 mM Tris, pH 8.0, 5 mM DTT, 0.05% (w/v) CHAPS. Reactions were assembled through the addition of 50 μl diluted isopeptidase to 50 μl of either Ub-AMC or Ub-Rhodamine110, and the signal in relative fluorescence units (RFUs) was measured at 30 minutes on an Envision multi-label plate reader (Perkin Elmer). For Ub-AMC, fluorescence was monitored with filters corresponding to excitation at 340 nm and emission at 460 nm. For Ub-Rhodamine110, fluorescence was monitored with filters corresponding to excitation at 485 nm and emission at 531 nm. The signal to background (S/B) was calculated as (maximum signal−signal in absence of enzyme)/(signal in absence of enzyme).

Ataxin3-like = biological target: T1, Ataxin3-like (Homo sapiens, UniProt Q9H3M9); assay: Platform comparison of DUB substrates, signal to background; conditions: DUB 10 nM; signal at 30 minutes; Ub-LUC 100 nM, DUB-Glo substrate 20 μM, Ub-AMC/Ub-rho 250 nM
T1 sequence (Q9H3M9 1-355): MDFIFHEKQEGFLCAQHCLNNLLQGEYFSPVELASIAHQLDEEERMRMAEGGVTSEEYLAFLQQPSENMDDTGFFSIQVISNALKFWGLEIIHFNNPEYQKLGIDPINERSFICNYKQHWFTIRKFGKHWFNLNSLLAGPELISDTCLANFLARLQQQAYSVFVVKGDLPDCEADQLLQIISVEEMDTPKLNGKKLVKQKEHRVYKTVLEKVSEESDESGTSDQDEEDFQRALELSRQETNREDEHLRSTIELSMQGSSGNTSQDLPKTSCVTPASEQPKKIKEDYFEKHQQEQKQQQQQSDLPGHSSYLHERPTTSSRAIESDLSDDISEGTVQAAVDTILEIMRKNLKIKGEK
Protocol: (§1) For Ub-AMC and Ub-Rhodamine110, all enzymes were diluted into 50 mM Tris, pH 8.0, 5 mM DTT, 0.05% CHAPS to a final concentration of 10 nM. […] Either Ub-AMC or Ub-Rhodamine110 (final reaction concentration equal to 250 nM) were diluted into 50 mM Tris, pH 8.0, 5 mM DTT, 0.05% (w/v) CHAPS. […] For Ub-Rhodamine110, fluorescence was monitored with filters corresponding to excitation at 485 nm and emission at 531 nm.

USP20 = USP20 (Homo sapiens, UniProt Q9Y2K6); assay: as above; conditions: DUB 10 nM; signal at 30 minutes; Ub-LUC 100 nM, DUB-Glo substrate 20 μM, Ub-AMC/Ub-rho 250 nM
Protocol: as §1

USP14 = USP14 (Homo sapiens, UniProt P54578); assay: as above; conditions: DUB 10 nM; signal at 30 minutes; Ub-LUC 100 nM, DUB-Glo substrate 20 μM, Ub-AMC/Ub-rho 250 nM
Protocol: as §1

JosD1 = JosD1 (Homo sapiens, UniProt Q15040); assay: as above; conditions: DUB 10 nM; signal at 30 minutes; Ub-LUC 100 nM, DUB-Glo substrate 20 μM, Ub-AMC/Ub-rho 250 nM
Protocol: as §1

AMSH = biological target: T2, AMSH (Homo sapiens, UniProt O95630); assay: as above; conditions: DUB 10 nM; signal at 30 minutes; Ub-LUC 100 nM, DUB-Glo substrate 20 μM, Ub-AMC/Ub-rho 250 nM
T2 sequence (O95630 1-424): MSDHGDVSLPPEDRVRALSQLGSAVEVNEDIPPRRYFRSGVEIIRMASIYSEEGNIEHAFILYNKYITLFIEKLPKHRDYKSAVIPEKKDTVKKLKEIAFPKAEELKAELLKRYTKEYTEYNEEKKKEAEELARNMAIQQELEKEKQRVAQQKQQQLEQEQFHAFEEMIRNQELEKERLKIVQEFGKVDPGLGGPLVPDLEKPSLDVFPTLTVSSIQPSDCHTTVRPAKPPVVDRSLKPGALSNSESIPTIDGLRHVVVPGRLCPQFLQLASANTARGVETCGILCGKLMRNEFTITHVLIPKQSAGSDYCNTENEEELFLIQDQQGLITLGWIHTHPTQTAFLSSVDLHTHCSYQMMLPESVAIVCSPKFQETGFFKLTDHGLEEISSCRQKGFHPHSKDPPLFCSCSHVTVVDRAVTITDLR
Protocol: as §1

Chain of USP20 (Q9Y2K6 whole entry, species assumed): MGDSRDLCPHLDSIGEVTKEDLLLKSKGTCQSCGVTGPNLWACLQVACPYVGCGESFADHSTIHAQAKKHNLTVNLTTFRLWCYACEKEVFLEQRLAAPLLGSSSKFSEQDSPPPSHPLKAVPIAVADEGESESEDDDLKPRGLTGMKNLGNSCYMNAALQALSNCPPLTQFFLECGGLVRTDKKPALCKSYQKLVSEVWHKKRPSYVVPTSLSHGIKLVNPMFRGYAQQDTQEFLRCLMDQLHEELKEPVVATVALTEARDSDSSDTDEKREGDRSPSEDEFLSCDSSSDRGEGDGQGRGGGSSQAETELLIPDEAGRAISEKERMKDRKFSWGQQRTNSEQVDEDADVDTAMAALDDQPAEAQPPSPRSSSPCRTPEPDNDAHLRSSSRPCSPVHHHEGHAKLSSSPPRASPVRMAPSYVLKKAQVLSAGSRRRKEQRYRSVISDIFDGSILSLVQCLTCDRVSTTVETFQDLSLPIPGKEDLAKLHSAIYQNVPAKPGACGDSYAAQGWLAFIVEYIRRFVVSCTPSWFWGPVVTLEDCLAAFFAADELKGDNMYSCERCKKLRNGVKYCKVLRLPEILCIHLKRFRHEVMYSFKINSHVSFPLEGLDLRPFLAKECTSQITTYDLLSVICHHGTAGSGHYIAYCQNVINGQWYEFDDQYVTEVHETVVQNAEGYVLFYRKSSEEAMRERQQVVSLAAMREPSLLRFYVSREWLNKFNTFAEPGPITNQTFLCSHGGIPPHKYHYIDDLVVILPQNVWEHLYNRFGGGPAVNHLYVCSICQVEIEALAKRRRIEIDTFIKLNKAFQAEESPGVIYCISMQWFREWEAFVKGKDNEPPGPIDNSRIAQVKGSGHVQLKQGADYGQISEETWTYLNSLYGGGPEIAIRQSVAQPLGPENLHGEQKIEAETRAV
Chain of USP14 (P54578 whole entry, species assumed): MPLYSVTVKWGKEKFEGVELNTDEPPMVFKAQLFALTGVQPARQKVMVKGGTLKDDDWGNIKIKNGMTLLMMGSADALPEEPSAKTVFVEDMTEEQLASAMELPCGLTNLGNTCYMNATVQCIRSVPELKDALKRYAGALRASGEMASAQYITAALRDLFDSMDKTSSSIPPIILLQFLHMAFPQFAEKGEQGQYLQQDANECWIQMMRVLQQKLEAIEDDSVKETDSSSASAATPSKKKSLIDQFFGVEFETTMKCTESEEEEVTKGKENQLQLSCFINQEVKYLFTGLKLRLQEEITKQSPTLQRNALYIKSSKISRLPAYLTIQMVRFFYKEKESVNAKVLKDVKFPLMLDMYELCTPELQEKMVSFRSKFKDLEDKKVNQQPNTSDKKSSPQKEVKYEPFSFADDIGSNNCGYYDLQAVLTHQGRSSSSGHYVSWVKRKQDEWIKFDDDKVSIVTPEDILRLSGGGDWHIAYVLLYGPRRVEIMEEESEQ
Chain of USP7 (Q93009 whole entry, species assumed): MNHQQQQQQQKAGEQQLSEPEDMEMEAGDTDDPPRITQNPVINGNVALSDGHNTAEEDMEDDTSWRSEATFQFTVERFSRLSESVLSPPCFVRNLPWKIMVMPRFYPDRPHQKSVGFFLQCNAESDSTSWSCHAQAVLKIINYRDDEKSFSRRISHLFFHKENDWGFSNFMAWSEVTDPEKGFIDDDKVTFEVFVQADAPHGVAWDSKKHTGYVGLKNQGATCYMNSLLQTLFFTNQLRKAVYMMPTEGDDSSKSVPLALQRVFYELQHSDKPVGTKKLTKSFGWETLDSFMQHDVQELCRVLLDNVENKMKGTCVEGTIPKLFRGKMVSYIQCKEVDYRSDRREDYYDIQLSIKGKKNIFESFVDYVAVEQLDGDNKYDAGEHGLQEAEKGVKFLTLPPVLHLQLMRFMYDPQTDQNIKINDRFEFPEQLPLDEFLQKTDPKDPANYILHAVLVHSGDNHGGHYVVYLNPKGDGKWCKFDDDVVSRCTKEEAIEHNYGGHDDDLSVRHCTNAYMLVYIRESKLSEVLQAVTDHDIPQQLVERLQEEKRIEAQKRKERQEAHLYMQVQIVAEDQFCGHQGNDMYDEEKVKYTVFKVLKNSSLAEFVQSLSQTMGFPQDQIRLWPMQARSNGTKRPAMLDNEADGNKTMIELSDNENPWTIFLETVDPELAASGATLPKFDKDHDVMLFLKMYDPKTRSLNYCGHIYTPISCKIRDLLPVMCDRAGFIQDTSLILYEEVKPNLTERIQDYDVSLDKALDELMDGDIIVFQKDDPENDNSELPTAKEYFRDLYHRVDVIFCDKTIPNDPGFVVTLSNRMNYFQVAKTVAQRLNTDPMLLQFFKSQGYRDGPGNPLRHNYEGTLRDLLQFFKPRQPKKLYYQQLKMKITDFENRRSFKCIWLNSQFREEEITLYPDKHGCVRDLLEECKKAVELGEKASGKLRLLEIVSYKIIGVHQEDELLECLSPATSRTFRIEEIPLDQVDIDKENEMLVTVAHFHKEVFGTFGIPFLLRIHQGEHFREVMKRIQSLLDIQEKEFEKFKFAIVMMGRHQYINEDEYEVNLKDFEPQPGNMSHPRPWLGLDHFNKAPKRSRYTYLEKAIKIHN

Row | S/B increase relative to both Ub-AMC and Ub-Rhodamine110 (USP7) [fold] | Signal to Background value (USP20) | Signal to Background value (USP14) | Signal to Background value (JosD1) | Signal to Background value (AMSH) | Substance | fold greater S/B compared to Ub-rhodamine110 [1] | limit of detection (S/B>3) increased over Ub-rhodamine110 [1] | Signal to Background value (Ataxin3-like)
1 | ~100 | 473 | 6.0 | 74 | 16 | Ub(1-76)-aminoluciferin [Ub-LUC] | more than 30 fold | more than 30 fold | 120
2 |  | 2.8 | 1.6 | 1.3 | 1.4 | Z-Arg-Leu-Arg-Gly-Gly (SEQ ID NO: 1)-amino-luciferin [DUB-glo ™] |  |  | 1.5
